The source of these data is patent US20220125752A1, “LEVODOPA DERIVATIVE AND USE THEREOF” (UNIVERSITY OF TSUKUBA, priority 2019, published 2022).

For series [1], the system named is MPTP mouse model of Parkinson's disease. Kind of series: Grid walking test, intraperitoneal treatment. Format: in vivo, C57BL/6J mice. Conditions: Day 11, after MPTP administered again; 15 mg/kg (in terms of L-DOPA) intraperitoneal for 11 days. Here is the method:
Male C57BL/6J mice, 15 weeks old, were used (see Chonpathompikunlert, P. (2018). BMC Complementary and Alternative Medicine, 18(103), 1 -12). […] The administration before treatment was to induce PD, and the administration after treatment was to visualize by a behavioral test. […] A grid walk test was performed as a behavioral test according to the above schedule, and the number of times the limbs of the mouse slipped into the opening was counted to test the balance ability.

The test system is the same in series [2]. Kind of series: Narrow beam walk test, intraperitoneal treatment. Conditions: Day 7; 15 mg/kg (in terms of L-DOPA) intraperitoneal; versus MPTP-administered group. It counts as in vivo, C57BL/6J mice. The text has this:
Male C57BL/6J mice, 15 weeks old, were used (see Chonpathompikunlert, P. (2018). BMC Complementary and Alternative Medicine, 18(103), 1 -12). […] The administration before treatment was to induce PD, and the administration after treatment was to visualize by a behavioral test. […] In this test, motor ability can be accessed by measuring the time until a mouse passes through a narrow bridge with a width of 1 cm, and the time increases with Parkinson's disease.

The nature of series [3]: Body weight change and health during treatment. Format: in vivo, C57BL/6J mice. The note with it: 15 mg/kg (in terms of L-DOPA) intraperitoneal for 11 days. On the procedure:
Male C57BL/6J mice, 15 weeks old, were used (see Chonpathompikunlert, P. (2018). BMC Complementary and Alternative Medicine, 18(103), 1 -12). A method of intraperitoneally administering 1-methyl-4-phenyl -1,2,3,6-tetrahydropyridine (MPTP) was used, but MPTP was administered before and after treatment with intraperitoneal administration of nanoparticles because of high recovery ability of mice themselves. The administration before treatment was to induce PD, and the administration after treatment was to visualize by a behavioral test.
The mice were randomly divided into the following four groups (n=4). • 1) Saline, for 12 days • 2) MPTP 20 mg/kg, 4 times daily, every 2 hours+saline, for 11 days+MPTP 30 mg/kg, for 3 days • 3) MPTP 20 mg/kg, 4 times daily, every 2 hours+L-DOPA 15 mg/kg, for 11 days+MPTP 30 mg/kg, for 3 days • 4) MPTP 20 mg/kg, 4 times daily, every 2 hours+NPs 15 mg/kg (in terms of L-DOPA), for 11 days+MPTP 30 mg/kg, for 3 days

Series [4] concerns L-DOPA-induced dyskinesia in MPTP mice. Kind of series: Abnormal involuntary movement scale test (AIMS test). Format: in vivo, C57BL/6J mice. The note with it: Day 17; 25 mg/kg (in terms of L-DOPA) with Benserazide 12 mg/kg for 17 days. Here is the method: Male C57BL/6J mice, 15 weeks old, were used (see Chonpathompikunlert, P. (2018). BMC Complementary and Alternative Medicine, 18(103), 1 -12). […] The administration before treatment was to induce PD, and the administration after treatment was to visualize by a behavioral test. […] An abnormal involuntary movement scale test (AIMS test) was performed as a behavioral test according to the above schedule, and the severity of dyskinesia was scored (0: no AIM, 1: AIM in <50%, 2: AIM in >50%, 3: continuous but stopped by stimulation, 4: continuous). Mice with a strong symptom of dyskinesia have a large score.

For series [5] the test system is unchanged. The series can be described thus: Slider test. Format: in vivo, C57BL/6J mice. Conditions: Day 17; 25 mg/kg (in terms of L-DOPA) with Benserazide 12 mg/kg for 17 days. The text has this:
Male C57BL/6J mice, 15 weeks old, were used (see Chonpathompikunlert, P. (2018). BMC Complementary and Alternative Medicine, 18(103), 1 -12). […] The administration before treatment was to induce PD, and the administration after treatment was to visualize by a behavioral test. […] (6) In addition, in a slider test, motor ability can be assessed by measuring the time until each mouse becomes unable to walk on a slope of 26.5 degrees or slides down, and the time is expected to be shortened with Parkinson's disease.

In series [6] the test system is Parkinson's disease mouse models (MPTP). The series can be described thus: Narrow beam walk test, oral administration. It counts as in vivo, C57BL/6J mice. The note with it: oral L-DOPA 15 mg/kg; versus MPTP-administered group. On the procedure:
(§1) Male C57BL/6J mice, 15 weeks old, were used as models as in Test 2. A three-day training period was provided for the models prior to administration to familiarize them with the experimental apparatus. MPTP was administered intraperitoneally at 30 mg/kg every day for the first 5 days (sub-acute). After the administration of MPTP, oral administration of L-DOPA or Nano^DOPA (administered once daily with a tube) was started, and MPTP was administered intraperitoneally to Groups II and III on Day 9, 4 times daily, every 2 hours (acute). MPTP was also administered intraperitoneally in a similar manner to the remaining Group IV on Day 10. The catalepsy test was performed on the same day as the acute administration of MPTP. In addition, the narrow beam walk test (see Test 2 (4)) was performed 2 days after the catalepsy test. All the mice were euthanized the next day of the behavioral test. Each group described above was as follows, and the mice were randomized into the following four groups (n=8). II. MPTP 30 mg/kg, for 5 days (sub-acute)+MPTP 20 mg/kg, 4 times daily, every 2 hours (acute) MPTP 30 mg/kg, for 5 days (sub-acute)+MPTP 20 mg/kg, 4 times daily, every 2 hours (acute)+L-DOPA 15 mg/kg (oral) IV. MPTP 30 mg/kg, for 5 days (sub-acute)+MPTP 20 mg/kg, 4 times daily, every 2 hours (acute)+Nano^DOPA 1.5 mg/kg (given ad libitum) The results are shown in FIG. 21.

Series [7] has the same test system. The series can be described thus: Catalepsy test, oral administration. It counts as in vivo, C57BL/6J mice. The note with it: L-DOPA 15 mg/kg, Nano^DOPA 1.5 mg/kg (given ad libitum), same day as acute MPTP. Here is the method:
as §1

Series [8] has as its system heart, lung, liver, spleen, and kidney. Also noted: species or system mice. Conditions: mouse, in vivo. On the procedure: After the animals were euthanized, major organs were cut out from mouse models of Parkinson's disease (PD) and L-DOPA-induced dyskinesia (LID) and fixed in a 4% paraformaldehyde solution at 4° C. for 72 hours. These tissues were then processed using an automated tissue processor (TP1020, Leica, Germany). The samples embedded in paraffin were subsequently sliced to a thickness of […] with an automatic microtome and stained with hematoxylin and eosin (H&E) as well as Masson trichrome (MT). Histological evaluation was performed by observation under an optical microscope (DP73, Olympus, Japan) and assessment of the potential toxicity of the PEG-b-P(L-DOPA(OAc)2)-Npa (or Nano^DOPA) during the treatment.

Regarding `N[C@@H](Cc1ccc(O)c(O)c1)C(=O)O` [L-DOPA, 3,4-dihydroxy-L-phenylalanine], in series [1], the “number of slipping in grid walking test” value was “no difference was observed in the L-DOPA-administered group compared to the non-treatment group”. Moreover, in series [2], the “time to pass through narrow bridge (narrow beam walk)” value was “improvement in therapeutic effect were continuously and significantly observed”. In series [3], the “body weight after MPTP-induced loss” value is “rapidly recovered” and the “health damage during the administration” value is listed as “no noticeable health damage was observed”. Moreover, the “severity of dyskinesia (AIMS observation)” value in series [4] was “involuntary movements of the oral cavity and twisting of the body axis characteristic of dyskinesia were observed only in the L-DOPA-administered group”. Besides, in series [5], the “slider test, walking on a slope of 26.5 degrees” value is “sliding down due to involuntary movements of mice was observed only in the L-DOPA-administered group”. Moreover, the “foot slip errors in narrow beam walk test” value in series [6] is on record as “significantly suppressed”. Also, in series [7], the catalepsy test entry is given as “no significant difference”.
On to PEG-b-P(L-DOPA(OAc)2), for which the “organ damage by H&E staining” value in series [8] is listed as “does not damage each organ at all”.
